Test results from patent US5595730A, “Lactate dehydrogenase inhibitors in cosmetic compositions” (priority 1996, dated 1997).
Where two headings read alike, the source gives them in different places.

Assays:
[1] = test system: Normal human epidermal keratinocytes (NHEK); assay: Keratinocyte proliferation (DNA content, fluorometric); format: cell-based; settings: for activation at 200 µM: 0.2 mM; for activation at 2000 µM: 2.0 mM; for activation at 10000 µM: 10 mM; for activation at 70 µM: 0.07 mM; for Keratinocyte proliferation, % Increase Over Control: Table 7, single agent alone
Method: Normal human epidermal keratinocytes (NHEK) derived from neonatal foreskin were used for all experiments. Media were purchased from Clonetics Corp., San Diego, Calif. Cell stocks frozen in passage 2 were grown in Keratinocyte Growth Medium (KGM) and passaged when 70-80% confluent. Cells were seeded in 96 well plates (Corning) at a density of 7500 cells/well in KGM. After 24 hours, cells were rinsed and dosed with test compounds in 200 μl of Keratinocyte Basal Medium (KBM). Plates were incubated for three days at 37° C., 5% CO2. Cell proliferation was estimated by assaying for DNA content by a fluorometric method described by Rago et al. (Analytical Biochemistry, 191:31-34, 1990). Medium was removed and cells were rinsed with phosphate buffered saline solution. 100 μl of sterile distilled water was added to each well and plates were frozen at -70° C. for one and a half hours. Plates were thawed for one hour at which time 100 μl of a 20 ug/ml solution of Bisbenzimide H33258 fluorochrome (Calbiochem Corp., La Jolla, Calif.) was added to each well. The fluorochrome was prepared just prior to use in 10 mM Tris, 1 mM EDTA, 4M NaCI, pH 7.4. Plates were read in a Millipore Cytofluor fluorescent plate reader to quantify DNA (excitation 360 nm, emission 460 nm). Percent increase over control was calculated from blank-corrected readings as (treated-untreated)/(untreated)*100. Each data point in the Tables below represents a mean of 5 or 6 replicates.
The procedure of Example 2 was repeated except that various co-active ingredients were tested for their ability to stimulate keratinocyte proliferation.
The procedure of Example 2 was repeated to test the effect of combination of an LDH inhibitor with another carboxylic acid on keratinocyte proliferation.

procollagen 1 = assay: Assay for collagen synthesis (secreted procollagen 1 immunoassay, fibroblasts); settings: actives 0.2 to 20 mM, serum-free medium, 48 hours
Method: Neonatal human dermal fibroblasts were purchased from Clonetics Corp., San Diego, Calif. All materials for cell culture were purchased from Life Technologies, N.Y. Cells were maintained in DMEM with 10% fetal bovine serum and used in passages 5-10. Confluent 96-well plates containing fibroblasts were treated with actives (0.2 to 20 mM) in serum-free medium for 48 hours. […] This was carried out in a BioDot SF apparatus according to the manufacturer's instructions (BioRad Labs, CA) and the blot was developed using a Vectastain Kit (PK6104, Vector Labs, CA) as per the manufacturer's directions. Color intensity was quantitated using an Ultroscan XL densitometer (Pharmacia LKB). Fold increase was calculated as (density of treated)/untreated.

[2] = Homo sapiens, NHEK, 72 h, Table 4, Test A, read-out: Keratinocyte Proliferation (% increase over control)
[3] = Homo sapiens, NHEK, 72 h, Table 4, Test B, read-out: Keratinocyte Proliferation (% increase over control)

For `CC(=O)O` [Acetate], the activation at 2 µM ([1]; Homo sapiens, NHEK, 72 h, Table 4, Test A, 0.002 mM, read-out: Keratinocyte Proliferation (% increase over control)) was 22%, the activation at 20 µM ([1]; Homo sapiens, NHEK, 72 h, Table 4, Test A, 0.02 mM, read-out: Keratinocyte Proliferation (% increase over control)) was 31% and the activation at 200 µM [1, 2] was 43%. It also gave an activation at 2000 µM [1, 2] of 46%, an activation at 10000 µM [1, 2] of 63% and an activation at 200 µM [1, 3] of 12%. The activation at 2000 µM [1, 3] was 19%, the activation at 10000 µM [1, 3] was 0% and the activation at 20000 µM ([1]; Homo sapiens, NHEK, 72 h, Table 4, Test B, 20 mM, read-out: Keratinocyte Proliferation (% increase over control)) was 0%. It also gave an activation at 156 µM ([1]; Homo sapiens, NHEK, 72 h, Table 4, Test C, 0.156 mM, read-out: Keratinocyte Proliferation (% increase over control)) of 13%, an activation at 313 µM ([1]; Homo sapiens, NHEK, 72 h, Table 4, Test C, 0.313 mM, read-out: Keratinocyte Proliferation (% increase over control)) of 32% and an activation at 625 µM ([1]; Homo sapiens, NHEK, 72 h, Table 4, Test C, 0.625 mM, read-out: Keratinocyte Proliferation (% increase over control)) of 9%. It also gave an activation at 1250 µM ([1]; Homo sapiens, NHEK, 72 h, Table 4, Test C, 1.25 mM, read-out: Keratinocyte Proliferation (% increase over control)) of 2%, an activation at 2500 µM ([1]; Homo sapiens, NHEK, 72 h, Table 4, Test C, 2.5 mM, read-out: Keratinocyte Proliferation (% increase over control)) of 11% and an activation at 5000 µM ([1]; Homo sapiens, NHEK, 72 h, Table 4, Test C, 5.0 mM, read-out: Keratinocyte Proliferation (% increase over control)) of 0%. For the same compound, the activation at 10000 µM ([1]; Homo sapiens, NHEK, 72 h, Table 4, Test C, read-out: Keratinocyte Proliferation (% increase over control)) was 0%, the activation at 70 µM ([1]; Homo sapiens, NHEK, 72 h, Table 4, Test D, read-out: Keratinocyte Proliferation (% increase over control)) was 50% and the activation at 156 µM ([1]; Homo sapiens, NHEK, 72 h, Table 4, Test D, 0.156 mM, read-out: Keratinocyte Proliferation (% increase over control)) was 47%. It also gave an activation at 313 µM ([1]; Homo sapiens, NHEK, 72 h, Table 4, Test D, 0.313 mM, read-out: Keratinocyte Proliferation (% increase over control)) of 56%, an activation at 625 µM ([1]; Homo sapiens, NHEK, 72 h, Table 4, Test D, 0.625 mM, read-out: Keratinocyte Proliferation (% increase over control)) of 57% and an activation at 1250 µM ([1]; Homo sapiens, NHEK, 72 h, Table 4, Test D, 1.25 mM, read-out: Keratinocyte Proliferation (% increase over control)) of 42%. For the same compound, the activation at 2500 µM ([1]; Homo sapiens, NHEK, 72 h, Table 4, Test D, 2.5 mM, read-out: Keratinocyte Proliferation (% increase over control)) was 44%, the activation at 5000 µM ([1]; Homo sapiens, NHEK, 72 h, Table 4, Test D, 5.0 mM, read-out: Keratinocyte Proliferation (% increase over control)) was 18% and the activation at 70 µM ([1]; Homo sapiens, NHEK, 72 h, Table 4, Test E, read-out: Keratinocyte Proliferation (% increase over control)) was 0%. It also gave an activation at 156 µM ([1]; Homo sapiens, NHEK, 72 h, Table 4, Test E, 0.156 mM, read-out: Keratinocyte Proliferation (% increase over control)) of 6%, an activation at 313 µM ([1]; Homo sapiens, NHEK, 72 h, Table 4, Test E, 0.313 mM, read-out: Keratinocyte Proliferation (% increase over control)) of 24% and an activation at 313 µM ([1]; Homo sapiens, NHEK, 72 h, Table 4, Test F, 0.313 mM, read-out: Keratinocyte Proliferation (% increase over control)) of 5%. For the same compound, the activation at 625 µM ([1]; Homo sapiens, NHEK, 72 h, Table 4, Test F, 0.625 mM, read-out: Keratinocyte Proliferation (% increase over control)) was 34%, the activation at 1250 µM ([1]; Homo sapiens, NHEK, 72 h, Table 4, Test F, 1.25 mM, read-out: Keratinocyte Proliferation (% increase over control)) was 35% and the activation at 2500 µM ([1]; Homo sapiens, NHEK, 72 h, Table 4, Test F, 2.5 mM, read-out: Keratinocyte Proliferation (% increase over control)) was 33%. It also gave an activation at 5000 µM ([1]; Homo sapiens, NHEK, 72 h, Table 4, Test F, 5.0 mM, read-out: Keratinocyte Proliferation (% increase over control)) of 7%, an activation at 10000 µM ([1]; Homo sapiens, NHEK, 72 h, Table 4, Test F, read-out: Keratinocyte Proliferation (% increase over control)) of 0% and an activation at 313 µM ([1]; Homo sapiens, NHEK, 72 h, Table 4, Test G, 0.313 mM, read-out: Keratinocyte Proliferation (% increase over control)) of 38%. The activation at 625 µM ([1]; Homo sapiens, NHEK, 72 h, Table 4, Test G, 0.625 mM, read-out: Keratinocyte Proliferation (% increase over control)) was 11%, the activation at 1250 µM ([1]; Homo sapiens, NHEK, 72 h, Table 4, Test G, 1.25 mM, read-out: Keratinocyte Proliferation (% increase over control)) was 24% and the activation at 2500 µM ([1]; Homo sapiens, NHEK, 72 h, Table 4, Test G, 2.5 mM, read-out: Keratinocyte Proliferation (% increase over control)) was 12%. The activation at 5000 µM ([1]; Homo sapiens, NHEK, 72 h, Table 4, Test G, 5.0 mM, read-out: Keratinocyte Proliferation (% increase over control)) was 18%, the activation at 10000 µM ([1]; Homo sapiens, NHEK, 72 h, Table 4, Test G, read-out: Keratinocyte Proliferation (% increase over control)) was 0% and the “Keratinocyte proliferation, % Increase Over Control” value ([1]; 0.156 mM) was 41%. For the same compound, the “Keratinocyte proliferation, % Increase Over Control” value ([1]; 0.313 mM) was 28%, the “Keratinocyte proliferation, % Increase Over Control” value ([1]; 0.625 mM) was 55% and the “Keratinocyte proliferation, % Increase Over Control” value ([1]; 1.25 mM) was 55%. For the same compound, the “Keratinocyte proliferation, % Increase Over Control” value ([1]; 2.5 mM) was 18%, the “Keratinocyte proliferation, % Increase Over Control” value ([1]; 5.0 mM) was 0% and the “Collagen Synthesis, Maximum fold over Control” value (procollagen 1) was 2.0 fold.
